In patent publication US7612065B2, “Inhibitors of c-JUN N-terminal kinases (JNK)” (priority 2007, dated 2009):

Molecular target: T1, JNK3 (Homo sapiens, UniProt P53779)
T1 construct: One such construct encodes amino acid residues Ser40-Glu402 of JNK3α1 and is preceded by Met and Gly residues; Met-Gly (initiation methionine plus glycine added for the NcoI site); made in house; host or cells: E. coli BL21 (DE3)
Assay: JNK inhibition assay: spectrophotometric coupled-enzyme assay with activated JNK3
Assay type: biochemical
Conditions: activated JNK3 10 nM, 10 μM ATP, 200 μM EGF receptor peptide, 30° C., competitive inhibition model
Method in brief: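 Activated (doubly phosphorylated, MKK7(DD)-activated) human JNK3, 10 nM, preincubated 10 min at 30 °C with inhibitor in 0.1 M HEPES pH 7.5, 10 mM MgCl2, 200 μM EGF receptor peptide, PK/LDH-coupled. Started with 10 μM ATP; A340 decrease followed at 30 °C. Ki from competitive inhibition model fit.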

T1 sequence (P53779 40-402): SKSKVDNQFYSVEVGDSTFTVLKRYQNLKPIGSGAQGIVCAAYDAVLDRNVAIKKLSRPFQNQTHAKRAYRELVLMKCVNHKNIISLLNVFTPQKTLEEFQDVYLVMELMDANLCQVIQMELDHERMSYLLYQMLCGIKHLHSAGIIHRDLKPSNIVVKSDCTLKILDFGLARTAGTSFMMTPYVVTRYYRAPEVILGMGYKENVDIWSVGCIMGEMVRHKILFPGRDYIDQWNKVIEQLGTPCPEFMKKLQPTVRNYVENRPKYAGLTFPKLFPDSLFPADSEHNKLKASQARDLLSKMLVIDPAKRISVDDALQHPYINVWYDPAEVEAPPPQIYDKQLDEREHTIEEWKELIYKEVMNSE

Q: O=C(Nc1ccc2c(c1)N(Cc1cc(F)cc3c1OCOC3)C(=O)/C2=N\O)C1CCCCC1 [Compound 346] was tested. Which Ki did it give?
A: ≥ 1000 nM

Q: For CC(=O)NCC(=O)NCC(=O)Nc1ccc2c(c1)N(Cc1cc(F)cc3c1OCOC3)C(=O)/C2=N\O [Compound 347], which Ki is on record?
A: ≥ 1000 nM

Q: Which Ki does the source give for CC(=O)NCC(=O)Nc1ccc2c(c1)N(Cc1cc(F)cc3c1OCOC3)C(=O)/C2=N\O [Compound 348] here?
A: ≥ 1000 nM

Q: With Cc1ccc(C(=O)c2ccc3c(c2)/C(=N/O)C(=O)N3Cc2cc(F)cc3c2OCOC3)cc1 [Compound 349] as the compound, how does the Ki read?
A: ≥ 1000 nM

Q: For Cc1cc2c(cc1C(=O)c1ccccc1)/C(=N/O)C(=O)N2Cc1cc(F)cc2c1OCOC2 [Compound 351], which Ki is on record?
A: ≥ 1000 nM

Q: How did the Ki turn out when C[C@H](NC(=O)OCC1c2ccccc2-c2ccccc21)C(=O)Nc1ccc2c(c1)N(Cc1cc(F)cc3c1OCOC3)C(=O)/C2=N\O [Compound 352] was run?
A: ≥ 1000 nM

Q: How did the Ki turn out when O=C(c1ccc2c(c1)/C(=N\O)C(=O)N2Cc1cc(F)cc2c1OCOC2)c1cccc(Cl)c1Cl [Compound 355] was run?
A: < 1000 nM

Q: For O=C(c1ccc2c(c1)/C(=N\O)C(=O)N2Cc1cc(F)cc2c1OCOC2)c1ccccc1Cl [Compound 356], which Ki is on record?
A: < 1000 nM
